The supplement of paper PMC10307832

Legend:
Assay in all cases: relative viability (nuclei count vs DMSO), 5 days (fraction); higher = more cells survive
[1] = compound: O=C(O)C(Cc1ccccc1[N+](=O)[O-])=NNc1nc(-c2ccc(Cl)c(Cl)c2)cs1 (mixture of isomers) [4EGI-1] + N=C(N)NC(=N)NCCc1ccccc1 [Phenformin] (partner 250 µM)
How it was run: (§1)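 After 5 days of treatment, lung cancer cells in 1536-well plates were fixed and stained in a single step (final 0.05% Triton X-100, 1% formaldehyde, 1 ug/ml Hoechst) and their nuclei counted on 4× images. Treatment had been applied by pin tool the day after seeding as one drug alone or as a fixed anchor-drug dose with five library-drug doses (not always all listed) in √10 steps. Relative viability is the nuclei count of treated wells divided by that of vehicle wells, and values are medians of duplicate plates.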

[2] = compound: CN1CCN(CC1)C2=CC(=C(C=C2)NC3=NC=C4C(=N3)N(C5=CC=CC=C5C(=O)N4C)C)OC [XMD8-85] + CS(=O)(=O)N1CCN(Cc2cc3nc(-c4cccc5[nH]ncc45)nc(N4CCOCC4)c3s2)CC1 [Pictilisib] (partner 1 µM)
How it was run: as §1

[3] = compound: CN1CCN(CC1)C2=CC(=C(C=C2)NC3=NC=C4C(=N3)N(C5=CC=CC=C5C(=O)N4C)C)OC [XMD8-85] + NC(=O)Nc1cc(-c2cccc(F)c2)sc1C(=O)N[C@H]1CCCNC1 [AZD7762] (partner 0.2 µM)
How it was run: as §1

[4] = compound: CN1CCN(CC1)C2=CC(=C(C=C2)NC3=NC=C4C(=N3)N(C5=CC=CC=C5C(=O)N4C)C)OC [XMD8-85] + CC(=O)Nc1cccc(-n2c(=O)n(C3CC3)c(=O)c3c(Nc4ccc(I)cc4F)n(C)c(=O)c(C)c32)c1 [Trametinib] (partner 0.02 µM)
How it was run: as §1

Cell Line	relative viability ([1]; first compound 0.5 µM)	relative viability ([1]; first compound 5 µM)	relative viability ([1]; first compound 15.81 µM)	relative viability ([1]; first compound 50 µM)	relative viability ([2]; first compound 0.08 µM)	relative viability ([2]; first compound 0.253 µM)	relative viability ([2]; first compound 0.8 µM)	relative viability ([2]; first compound 8 µM)	relative viability ([3]; first compound 0.08 µM)	relative viability ([3]; first compound 0.253 µM)	relative viability ([3]; first compound 0.8 µM)	relative viability ([3]; first compound 2.53 µM)	relative viability ([3]; first compound 8 µM)	relative viability ([1]; first compound 1.581 µM)	relative viability ([2]; first compound 2.53 µM)	relative viability ([4]; first compound 0.08 µM)	relative viability ([4]; first compound 0.253 µM)	relative viability ([4]; first compound 0.8 µM)	relative viability ([4]; first compound 2.53 µM)	relative viability ([4]; first compound 8 µM)
A549	0.154	0.172	0.148	0.0933	0.517	0.516	0.591	0.483												
ABC-1	0.239	0.215	0.209	0.171	0.628	0.614	0.942		0.904	0.805	0.799	0.876	0.859	0.234	0.746					
COR-L23	0.49	0.429	0.296	0.144	0.8	0.717	1.01	0.577						0.275	0.798	0.488	0.548	0.651	0.548	0.333
COR-L 105	0.46	0.488	0.375	0.31	0.429	0.415	0.359	0.303						0.442	0.353	0.432	0.465	0.433	0.506	0.437
Calu-6					1.02	0.97	1.05	0.572							0.979					
EBC-1					0.383	0.364	0.502	0.18							0.339					
IA-LM					0.342	0.187	0.334	0.143							0.193					
NCI-H520	0.866	0.703	0.669	0.191	0.222	0.271	0.295	0.231						0.589	0.248		0.728	0.689	0.604	0.496
NCI-H522	0.641	0.676	0.626	0.551					0.697	0.851	0.798	0.859	0.69	0.548		0.821	0.653	0.739	0.698	0.537
NCI-H661	0.274	0.297	0.274	0.243	0.406	0.419	0.412	0.357						0.267	0.366	0.548	0.536	0.583	0.653	0.43
NCI-H1299					0.651	0.908	0.874	0.367							0.643					
NCI-H1563	0.624	0.602	0.69	0.55	0.703	0.652	0.646	0.62						0.613	0.663					
NCI-H1623	0.586	0.607	0.45	0.53										0.5						
NCI-H1648									0.483	0.572	0.587	0.717	0.726			0.493	0.416	0.397	0.337	0.354
